Where a name gives a salt, the structure may show the parent alone.
Target: PAPD5 enzyme (Homo sapiens, UniProt Q8NDF8)
Assay: PAPD5 assay (AMP incorporation onto 3'-terminus of RNA substrate, fluorescence quench)
Type: biochemical
Conditions: PAPD5 protein 0.3 nM, ATP 50 μM, 30 minutes preincubation, room temperature; read-out: Potency PAPD5 IC50
Protocol: The purpose of the PAPD5 assay is to determine compound potency against PAPD5 enzyme through the measurement of IC50. Compound inhibition is measured as a function of AMP incorporation onto the 3′-terminus of an RNA substrate in the presence of active PAPD5, ATP, and inhibitor. The PAPD5 assay was done in a black, non-binding, 384 well plate (Corning #3575). All steps were performed at room temperature. For a typical assay, a 40 ul aliquot of assay buffer (50 mM HEPES pH 7.3, 20 mM KCl, 10 mM MgCl2, 10 mMM DTT, 0.01% Triton X-100, 40 U/ml RNAsin (Promega)) containing PAPD5 protein (final 10 concentration: 0.3 nM) and ATP (final concentration 50 μM) was added to each well. Next, 1 ul of compound in 100% DMSO is transferred from a compound dilution plate in which the compound is serially diluted. The plate was placed on a plate shaker for 30 seconds to produce mixing, then incubated for 30 minutes. Next, 10 ul of a 5× mix of RNA substrate (5′-fluorescein-AUAGAG-3′ (IDT)) and a DNA oligonucleotide that is complementary to the AMP modified RNA product (5′-TCTCTATT-3′-TAMRA, wherein the first two nucleotides are locked nucleic acids (IDT)) was added (final concentrations: 5 nM and 20 nM, respectively). The plate was placed on a plate shaker for 30 seconds to produce mixing then immediately placed in a Biotek Cytation 5 plate reader, and the time-dependent decrease in fluorescein fluorescence resulting from annealing of the TAMRA labeled quenching probe was recorded, using the kinetics mode of the reader (typical run time is 90 minutes). Reaction rates were obtained using linear fits to the early portion of progress curves. IC50 values were calculated using a four-parameter fit with 100% enzyme activity determined from the DMSO control and 0% activity from control samples lacking UTP.
“+” represents an IC50 value that is greater than 50 PM; “++” represents an IC50 value that is greater than 10 μM and equal to or less than 50 μM; “+++” represents an IC50 value that is greater than 1 μM and equal to or less than 10 μM; and “++++” represents an IC50 value that is equal to or less than 1 μM.

Chain of PAPD5 enzyme (Q8NDF8 whole entry): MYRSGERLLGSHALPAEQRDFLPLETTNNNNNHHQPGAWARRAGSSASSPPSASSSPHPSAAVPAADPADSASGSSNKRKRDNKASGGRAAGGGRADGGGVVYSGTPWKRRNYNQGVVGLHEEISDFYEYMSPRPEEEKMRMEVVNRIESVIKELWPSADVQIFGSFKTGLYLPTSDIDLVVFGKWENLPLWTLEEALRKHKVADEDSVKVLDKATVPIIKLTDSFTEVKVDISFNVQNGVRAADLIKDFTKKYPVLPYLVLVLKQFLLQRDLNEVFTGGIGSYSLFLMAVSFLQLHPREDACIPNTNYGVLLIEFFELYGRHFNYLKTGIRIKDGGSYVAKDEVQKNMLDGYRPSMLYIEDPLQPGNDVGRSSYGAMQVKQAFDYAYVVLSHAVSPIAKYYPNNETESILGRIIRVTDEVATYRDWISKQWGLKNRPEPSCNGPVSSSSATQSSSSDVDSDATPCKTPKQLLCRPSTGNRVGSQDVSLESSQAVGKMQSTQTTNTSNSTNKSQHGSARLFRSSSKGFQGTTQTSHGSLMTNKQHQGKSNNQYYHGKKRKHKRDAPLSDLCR

IC50, ≤ 1000 nM:
O=C(O)c1cn(-c2cnccn2)c2nc(N3Cc4cccnc4C3)c(Cl)cc2c1=O [Example 2, 6-chloro-4-oxo-1-(pyrazin-2-yl)-7{5H,6H,7H pyrrolo[3,4-b]pyridin-6-yl}-1,4-dihydro-1,8-naphthyridine-3-carboxylic acid]
O=C(O)c1cn(-c2ccc(O)c(F)c2)c2cc(N3Cc4cccnc4C3)c(Cl)cc2c1=O [Example 3, 6-chloro-1-(3-fluoro-4-hydroxyphenyl)-4-oxo-7-{5H,6H,7H-pyrrolo[3,4-b]pyridin-6-yl}-1,4-dihydroquinoline-3-carboxylic acid]
Cc1cc(NC(=O)OC(C)(C)C)ncc1-n1cc(C(=O)O)c(=O)c2cc(Cl)c(N3Cc4cccnc4C3)cc21 [Example 4, 1-(6-{[(tert-butoxy)carbonyl]amino}-4-methylpyridin-3-yl)-6-chloro-4-oxo-7-{5H,6H,7H-pyrrolo[3,4-b]pyridin-6-yl}-1,4-dihydroquinoline-3-carboxylic acid]
Cc1cc(N)ncc1-n1cc(C(=O)O)c(=O)c2cc(Cl)c(N3Cc4cccnc4C3)cc21 [Example 5, 1-(6-amino-4-methylpyridin-3-yl)-6-chloro-4-oxo-7-{5H,6H,7H-pyrrolo[3,4-b]pyridin-6-yl}-1,4-dihydroquinoline-3-carboxylicacid hydrochloride]
O=C(O)c1cn(CC2CCC2)c2nc(N3Cc4cccnc4C3)c(Cl)cc2c1=O [Example 6, 6-chloro-1-(cyclobutylmethyl)-4-oxo-7-{5H,6H,7H-pyrrolo[3,4-b]pyridin-6-yl}-1,4-dihydro-1,8-naphthyridine-3-carboxylic acid]
N#Cc1cc2c(=O)c(C(=O)O)cn(CC3CCC3)c2nc1N1Cc2cccnc2C1 [Example 7, 6-cyano-1-(cyclobutylmethyl)-4-oxo-7-{5H,6H,7H-pyrrolo[3,4-b]pyridin-6-yl}-1,4-dihydro-1,8-naphthyridine-3-carboxylic acid]
O=C(O)c1cn(-c2ccc(O)cc2F)c2cc(-n3ncc4cccc(Br)c43)c(F)cc2c1=O [Example 9, 7-(7-bromo-1H-indazol-1-yl)-6-fluoro-1-(2-fluoro-4-hydroxyphenyl)-4-oxo-1,4-dihydroquinoline-3-carboxylic acid]
O=C(O)c1cn(-c2ccc(O)cc2F)c2cc(-n3ncc4cc(Cl)cc(Cl)c43)c(F)cc2c1=O [Example 10, 7-(5,7-dichloro-1H-indazol-1-yl)-6-fluoro-1-(2-fluoro-4-hydroxyphenyl)-4-oxo-1,4-dihydroquinoline-3-carboxylic acid]
Cc1nn(-c2cc3c(cc2F)c(=O)c(C(=O)O)cn3-c2ccc(O)cc2F)cc1Br [Example 11, 7-(4-bromo-3-methyl-1H-pyrazol-1-yl)-6-fluoro-1-(2-fluoro-4-hydroxyphenyl)-4-oxo-1,4-dihydroquinoline-3-carboxylic acid]
O=C(O)c1cn(-c2ccc(O)cc2F)c2cc(-n3ccc(Cl)n3)c(F)cc2c1=O [Example 12, 7-(3-chloro-1H-pyrazol-1-yl)-6-fluoro-1-(2-fluoro-4-hydroxyphenyl)-4-oxo-1,4-dihydroquinoline-3-carboxylic acid]
COc1ccc2c(c1)CN(c1cc3c(cc1F)c(=O)c(C(=O)O)cn3-c1ccc(O)cc1F)C2 [Example 14, 6-fluoro-1-(2-fluoro-4-hydroxyphenyl)-7-(5-methoxyisoindolin-2-yl)-4-oxo-1,4-dihydroquinoline-3-carboxylic acid]
O=C(O)c1cn(-c2ccc(O)cc2F)c2cc(N3Cc4cccc(F)c4C3)c(F)cc2c1=O [Example 15, 6-fluoro-1-(2-fluoro-4-hydroxyphenyl)-7-(4-fluoroisoindolin-2-yl)-4-oxo-1,4-dihydroquinoline-3-carboxylic acid]
O=C(O)c1cn(-c2ccc(O)cc2)c2cc(N3Cc4cccnc4C3)c(Cl)cc2c1=O [Example 16, 6-chloro-7-(5,7-dihydro-6H-pyrrolo[3,4-b]pyridin-6-yl)-1-(4-hydroxyphenyl)-4-oxo-1,4-dihydroquinoline-3-carboxylic acid]
O=C(O)c1cn(-c2ccc(CO)cc2F)c2cc(N3Cc4cccnc4C3)c(Cl)cc2c1=O [Example 17, 6-chloro-7-(5,7-dihydro-6H-pyrrolo[3,4-b]pyridin-6-yl)-1-(2-fluoro-4-(hydroxymethyl)phenyl)-4-oxo-1,4-dihydroquinoline-3-carboxylic acid]
O=C(O)c1cn(-c2ccc(O)cc2)c2cc(N3Cc4cccnc4C3)c(F)cc2c1=O [Example 18, 7-(5,7-dihydro-6H-pyrrolo[3,4-b]pyridin-6-yl)-6-fluoro-1-(4-hydroxyphenyl)-4-oxo-1,4-dihydroquinoline-3-carboxylic acid]
O=C(O)c1cn(-c2ccc(O)cc2)c2cc(N3Cc4ccncc4C3)c(F)cc2c1=O [Example 19, 7-(1,3-dihydro-2H-pyrrolo[3,4-c]pyridin-2-yl)-6-fluoro-1-(4-hydroxyphenyl)-4-oxo-1,4-dihydroquinoline-3-carboxylic acid]
O=C(O)c1cn(-c2cnccn2)c2cc(N3Cc4ccccc4C3)c(Cl)cc2c1=O [Example 21, 6-chloro-7-(isoindolin-2-yl)-4-oxo-1-(pyrazin-2-yl)-1,4-dihydroquinoline-3-carboxylic acid]
CN(C)C1CN(c2ccc(-n3cc(C(=O)O)c(=O)c4cc(Cl)c(N5Cc6cccnc6C5)nc43)cn2)C1 [Example 22, 6-chloro-7-(5,7-dihydro-6H-pyrrolo[3,4-b]pyridin-6-yl)-1-(6-(3-(dimethylamino)azetidin-1-yl)pyridin-3-yl)-4-oxo-1,4-dihydro-1,8-naphthyridine-3-carboxylic acid]
Nc1ncc(-n2cc(C(=O)O)c(=O)c3cc(Cl)c(N4Cc5cccnc5C4)cc32)cc1F [Example 23, 1-(6-amino-5-fluoropyridin-3-yl)-6-chloro-7-(5,7-dihydro-6H-pyrrolo-[3,4-b]pyridin-6-yl)-4-oxo-1,4-dihydroquinoline-3-carboxylic acid]
Cc1nc(N)ccc1-n1cc(C(=O)O)c(=O)c2cc(Cl)c(N3Cc4cccnc4C3)cc21 [Example 24, 1-(6-amino-2-methylpyridin-3-yl)-6-chloro-7-(5,7-dihydro-6H-pyrrolo[3,4-b]pyridin-6-yl)-4-oxo-1,4-dihydroquinoline-3-carboxylic acid]
Cc1cc(N2CC(N(C)C)C2)ncc1-n1cc(C(=O)O)c(=O)c2cc(Cl)c(N3Cc4cccnc4C3)cc21 [Example 25, 6-chloro-7-(5,7-dihydro-6H-pyrrolo[3,4-b]pyridin-6-yl)-1-(6-(3-(dimethylamino)azetidin-1-yl)-4-methylpyridin-3-yl)-4-oxo-1,4-dihydroquinoline-3-carboxylic acid]
O=C(O)c1cn(-c2ccc(O)cc2F)c2cc(N3Cc4cccnc4C3)c(Cl)cc2c1=O [Example 27, 6-chloro-7-(5,7-dihydro-6H-pyrrolo[3,4-b]pyridin-6-yl)-1-(2-fluoro-4-hydroxyphenyl)-4-oxo-1,4-dihydroquinoline-3-carboxylic acid]
O=C(O)c1cn(-c2ccc(O)c(F)c2)c2cc(N3Cc4cccnc4C3)c(F)cc2c1=O [Example 28, 7-(5,7-dihydro-6H-pyrrolo[3,4-b]pyridin-6-yl)-6-fluoro-1-(3-fluoro-4-hydroxyphenyl)-4-oxo-1,4-dihydroquinoline-3-carboxylic acid]
O=C(O)c1cn(-c2ccc(O)cc2F)c2cc(N3Cc4cccnc4C3)c(F)cc2c1=O [Example 29, 7-(5,7-dihydro-6H-pyrrolo[3,4-b]pyridin-6-yl)-6-fluoro-1-(2-fluoro-4-hydroxyphenyl)-4-oxo-1,4-dihydroquinoline-3-carboxylic acid]
O=C(O)c1cn(-c2ccc(O)cc2F)c2cc(N3Cc4ccccc4C3)c(Cl)cc2c1=O [Example 30, 6-chloro-1-(2-fluoro-4-hydroxyphenyl)-7-(isoindolin-2-yl)-4-oxo-1,4-dihydroquinoline-3-carboxylic acid]
O=C(O)c1cn(-c2ccc(O)c(F)c2)c2cc(N3Cc4ccccc4C3)c(F)cc2c1=O [Example 31, 6-fluoro-1-(3-fluoro-4-hydroxyphenyl)-7-(isoindolin-2-yl)-4-oxo-1,4-dihydroquinoline-3-carboxylic acid]
O=C(O)c1cn(-c2ccc(O)cc2F)c2cc(N3Cc4ccccc4C3)c(F)cc2c1=O [Example 32, 6-fluoro-1-(2-fluoro-4-hydroxyphenyl)-7-(isoindolin-2-yl)-4-oxo-1,4-dihydroquinoline-3-carboxylic acid]

From patent US20240376100A1 (Redona Therapeutics, Inc., priority 2021, published 2024)
